{
  "source": "patent US20240082347A1",
  "about": "“TREATMENT OF CORONAVIRUS” (priority 2021, published 2024)",
  "key": {"[1]": {"system": "SARS-CoV-2 binding to human colorectal epithelial cells (Caco-2)", "format": "cell-based"}, "[2]": {"system": "VE-Cadherin in endothelial cells", "experiment": "SDS-PAGE and Western blot of VE-Cadherin after ex vivo infection assay", "format": "cell-based, human", "settings": "healthy, infected and treated cells; 0.0005 μM", "procedure": "Following the ex vivo infection assay, endothelial cells were lysed in RIPA buffer and stored at −20° C. until use. Samples were separated on a 10% SDS-PAGE gel. Following this, proteins were transferred onto a nitrocellulose membrane and blocked for 1 hour using 5% skimmed milk. The membrane was probed using anti-VE Cadherin primary antibody (Clone: F-8, Cat. No: sc-9989, 1:200, SantaCruz) and anti-GAPDH primary antibody (6000-4-1 mouse mAB, 1:2000, ProteinTech), overnight at 4° C. Anti-mouse IgG secondary antibodies (sc525405, 1:5000, SantaCruz) were used the following day. Proteins were detected using chemiluminescence."}, "sheared HAoEC": {"system": "sheared HAoEC", "experiment": "Transwell permeability assay (FITC-Dextran) after SARS-CoV-2 infection", "format": "cell-based, human", "settings": "0.0005 μM; SARS-CoV-2 infection 24 hours; FIG. 5A"}, "[3]": {"system": "VE-Cadherin expression on sheared HAoEC", "format": "cell-based, human", "settings": "0.0005 μM"}, "[4]": {"system": "SARS-CoV-2 binding to Human Aortic Endothelial Cells (HAoEC)", "format": "cell-based"}, "[5]": {"molecular_target": "T1, Recombinant integrin αVβ3 (binding of SARS-CoV-2 spike protein) (Homo sapiens, UniProt P05106+P06756)", "T1 construct": "purchased BioTechne 3050-AV-050", "T1 sequence (P06756 31-992 limits assumed)": "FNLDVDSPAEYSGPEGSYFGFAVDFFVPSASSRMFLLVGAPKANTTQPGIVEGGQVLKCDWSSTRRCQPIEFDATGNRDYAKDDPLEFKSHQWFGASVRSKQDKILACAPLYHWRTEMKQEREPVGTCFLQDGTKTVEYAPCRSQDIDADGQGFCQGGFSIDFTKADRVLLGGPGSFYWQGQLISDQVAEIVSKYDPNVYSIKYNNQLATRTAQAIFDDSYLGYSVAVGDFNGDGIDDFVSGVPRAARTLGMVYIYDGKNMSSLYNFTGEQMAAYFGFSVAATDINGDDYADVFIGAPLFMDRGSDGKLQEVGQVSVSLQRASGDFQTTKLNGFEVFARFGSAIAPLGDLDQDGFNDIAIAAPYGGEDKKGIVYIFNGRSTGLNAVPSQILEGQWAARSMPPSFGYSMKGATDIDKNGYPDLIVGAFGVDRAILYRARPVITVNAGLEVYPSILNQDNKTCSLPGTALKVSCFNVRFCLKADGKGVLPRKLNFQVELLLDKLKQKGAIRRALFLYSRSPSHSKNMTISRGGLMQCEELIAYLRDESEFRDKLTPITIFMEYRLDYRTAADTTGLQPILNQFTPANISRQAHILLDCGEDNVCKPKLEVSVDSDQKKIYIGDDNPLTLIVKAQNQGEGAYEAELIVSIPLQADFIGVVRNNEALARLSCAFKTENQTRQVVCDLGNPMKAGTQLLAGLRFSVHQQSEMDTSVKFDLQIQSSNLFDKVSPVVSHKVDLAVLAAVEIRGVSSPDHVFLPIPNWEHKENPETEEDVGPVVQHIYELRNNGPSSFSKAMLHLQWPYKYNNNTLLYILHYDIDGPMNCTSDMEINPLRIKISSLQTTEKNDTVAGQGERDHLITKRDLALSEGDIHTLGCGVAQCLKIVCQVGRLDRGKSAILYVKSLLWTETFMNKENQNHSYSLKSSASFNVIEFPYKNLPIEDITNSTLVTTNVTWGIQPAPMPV", "T1 sequence (P05106 27-718 limits assumed)": "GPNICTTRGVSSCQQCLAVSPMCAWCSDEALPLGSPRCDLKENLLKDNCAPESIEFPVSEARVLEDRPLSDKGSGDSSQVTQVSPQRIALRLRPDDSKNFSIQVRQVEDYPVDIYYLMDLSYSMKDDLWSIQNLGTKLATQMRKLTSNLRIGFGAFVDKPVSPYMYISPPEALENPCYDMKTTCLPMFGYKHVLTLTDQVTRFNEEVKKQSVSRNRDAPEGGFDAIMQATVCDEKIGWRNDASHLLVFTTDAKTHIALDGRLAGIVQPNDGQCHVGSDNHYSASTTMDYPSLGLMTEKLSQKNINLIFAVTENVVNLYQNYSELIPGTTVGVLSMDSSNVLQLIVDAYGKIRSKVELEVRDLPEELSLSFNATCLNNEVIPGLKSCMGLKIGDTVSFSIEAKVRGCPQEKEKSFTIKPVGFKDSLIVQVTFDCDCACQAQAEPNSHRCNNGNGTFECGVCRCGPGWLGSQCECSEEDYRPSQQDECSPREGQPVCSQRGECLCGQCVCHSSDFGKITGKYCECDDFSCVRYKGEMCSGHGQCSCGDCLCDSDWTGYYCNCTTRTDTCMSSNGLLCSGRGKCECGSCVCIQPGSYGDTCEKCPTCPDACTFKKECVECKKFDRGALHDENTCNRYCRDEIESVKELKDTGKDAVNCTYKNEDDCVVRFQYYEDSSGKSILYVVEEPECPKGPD", "experiment": "Fluorescent-based protein interaction assay, spike protein and αVβ3", "settings": "FIG. 8"}},
  "note": "“Also recorded” adds a separate entry of the source.",
  "data": [
    {"smiles": "CC(C)[C@H]1C(=O)N[C@@H](CCCN=C(N)N)C(=O)NCC(=O)N[C@@H](CC(=O)O)C(=O)N[C@H](Cc2ccccc2)C(=O)N1C", "note": "[Cilengitide, cyclo(-RGDf(NMe)V-)]", "values": [
      {"measurement": "SARS-CoV-2 binding to human colorectal epithelial cells", "setting": "[1]", "value": "effectively reduces SARS-CoV-2 binding to human colorectal epithelial cells"},
      {"measurement": "Total VE-Cadherin", "setting": "[2]", "value": "Total VE-Cadherin remains consistent"},
      {"measurement": "endothelial barrier permeability (FITC-Dextran, 40 kDa)", "setting": "sheared HAoEC", "value": "limited the occurrence of barrier permeability; also recorded: restored after treating cells with Cilengitide"},
      {"measurement": "VE-Cadherin surface expression (mean fluorescence), marker of barrier integrity", "setting": "[3]", "value": "prevented VE-cadherin reduction during infection; also recorded: returning VE-cadherin levels back to uninfected levels; also recorded: re-established the barrier integrity; also recorded: barrier permeability was restored back to uninfected levels"},
      {"measurement": "internalisation of VE-Cadherin following SARS-CoV-2 infection", "setting": "[3]", "value": "internalisation of VE-Cadherin is prevented"},
      {"measurement": "SARS-CoV-2 binding to endothelial cells, dose response", "setting": "[4]", "value": "in a dose-dependent manner; also recorded: significantly prevents both attachment to the host and disruption of barrier integrity; also recorded: Statistical significance was found between the no drug control and each Cilengitide treated group"},
      {"measurement": "virus (SARS-CoV-2) attachment to human vascular endothelial cells", "setting": "[4]", "value": "dose dependently inhibits virus (SARS-CoV-2) attachment to human vascular endothelial cells"}
    ]},
    {"smiles": "COc1ccc(S(=O)(=O)N[C@@H](CNc2nc(C)nc(N3CCC(c4ccc5c(n4)NCCC5)CC3)c2C)C(=O)O)cc1", "note": "[GLPG0187]", "values": [
      {"measurement": "recombinant spike protein binding to integrin αVβ3, comparison of GLPG0187 with Cilengitide", "setting": "[5]", "value": "Cilengitide is significantly more effective"},
      {"measurement": "viral (SARS-CoV-2) attachment to human vascular endothelial cells", "setting": "[4]", "value": "failed to inhibit viral (SARS-CoV-2) attachment to human vascular endothelial cells"}
    ]},
    {"smiles": "CNc1cccc(CCOc2ccc3c(c2)CN(CC(F)(F)F)C(=O)[C@H](CC(=O)O)C3)n1", "note": "[SB-273005]", "values": [
      {"measurement": "viral (SARS-CoV-2) attachment to human vascular endothelial cells", "setting": "[4]", "value": "failed to inhibit viral (SARS-CoV-2) attachment to human vascular endothelial cells; also recorded: unsuccessful at reducing SARS-CoV-2 binding to human endothelial cells"}
    ]}
  ]
}
